The Deep4Chem optical property database
Where “and” joins values, the source holds several entries; their conditions need not be identical. Equal values may be shown once.

Experiment: solvent given as SMILES

CCn1c2ccccc2c2ccc(-c3ccc(OC)cc3)cc21
absorption maximum (in C1CCCCC1): 310 nm

CCCCCCCCOc1cc(/C=C/c2cc(OCCCCCCCC)c(/C=C/c3cc(OCCCCCCCC)c(Br)cc3OCCCCCCCC)cc2OCCCCCCCC)c(OCCCCCCCC)cc1Br
absorption maximum (in ClCCl): 410 nm

COc1c2ccccc2c(OC)c2c1c1ccc(C)cc1n2C
absorption maximum (in C1CCCCC1): 402 nm
absorption maximum (in CC#N): 404 nm
absorption maximum (in CO): 401 nm
absorption maximum (in ClCCl): 405 nm

CCCN1c2ccc(C3=C4C=CC=[N+]4[B-](F)(F)n4cccc43)cc2Sc2cc(C3=C4C=CC=[N+]4[B-](F)(F)n4cccc43)ccc21
absorption maximum (in ClCCl): 500 nm

C[Si]1(C)O[Si](C)(C)c2cc3cc4cc5c(cc4cc3cc21)C(=O)c1cc2cc3cc4c(cc3cc2cc1C5=O)[Si](C)(C)O[Si]4(C)C
absorption maximum (in ClC(Cl)Cl): 470 nm

CC(=O)C1=C(O)CC2Oc3c(C(C)=O)c(O)c(C)c(O)c3C2(C)C1=O (centres undefined)
absorption maximum (in ClC(Cl)Cl): 340 nm

COc1ccc(C(=O)/C=C/c2ccc(N(C)C)cc2)cc1OC
absorption maximum (in C1CCOC1): 403 nm
absorption maximum (in CC#N): 412 nm
absorption maximum (in CC(=O)O): 426 nm
absorption maximum (in CC(C)=O): 408 nm
absorption maximum (in CCO): 419 nm
absorption maximum (in CN(C)C=O): 416 nm
absorption maximum (in CO): 421 nm
absorption maximum (in Cc1ccccc1): 404 nm
absorption maximum (in ClC(Cl)Cl): 417 nm
absorption maximum (in c1ccccc1): 406 nm

C[SiH]1c2ccccc2-c2cc3c(cc21)-c1ccccc1[SiH]3C (centres undefined)
absorption maximum (in ClCCl): 324 nm

O=c1oc2ccccc2c2c1c(=O)oc1cc(O)cc(O)c12
absorption maximum (in CS(C)=O): 388 nm
absorption maximum (in ClCCl): 385 nm

N#Cc1c(N2CCCCC2)cc(-c2ccc3ccc4cccc5ccc2c3c45)c2c1Cc1ccccc1-2
absorption maximum (in C1CCOC1): 344 nm

COc1ccc(OC)cc1
absorption maximum (in C1CCCCC1): 286.2 nm

C[Si]1(C)C2=CC(=[N+]3CCC3)C=C(F)C2=Nc2c(F)cc(N3CCC3)cc21
absorption maximum (in CCO): 709 nm

CN(C)c1ncc2nc(C#N)n(Cc3ccccc3)c2n1
absorption maximum (in C1COCCO1): 355 nm
absorption maximum (in CC#N): 357 nm
absorption maximum (in CO): 358 nm
absorption maximum (in ClCCl): 361 nm

C(=C\c1cc(/C=C/c2ccc(N(c3ccccc3)c3ccccc3)cc2)ncn1)/c1ccc(N(c2ccccc2)c2ccccc2)cc1
absorption maximum (in ClCCl): 427 nm

O=C(O)c1ccc(-c2cnc(-c3ccc(N(c4ccccc4)c4ccccc4)cc3)s2)cc1
absorption maximum (in CO): 387 nm

CC(=O)c1ccc2ccc3cccc4ccc1c2c34
absorption maximum (in C1CCOC1): 384 nm
absorption maximum (in CC#N): 382 nm
absorption maximum (in CCCCCC): 384 nm
absorption maximum (in CCO): 383 nm
absorption maximum (in CN(C)C=O): 384 nm
absorption maximum (in CO): 385 nm
absorption maximum (in Cc1ccccc1): 387 nm
absorption maximum (in ClCCl): 385 nm

CC(C)(C)/C=C1\C=C(c2ccccc2)C=C1c1ccccc1
absorption maximum (in C1CCOC1): 400 nm

CC(C)(C)c1ccc2c(c1)c1cc(C(C)(C)C)ccc1n2-c1cccc2c1Oc1c(-c3nc(-c4ccccc4)nc(-c4ccccc4)n3)cccc1C2(C)C
absorption maximum (in Cc1ccccc1): 346 nm

COc1ccc(-c2csc(/C(C#N)=C/c3ccc(C#N)cc3)n2)cc1
absorption maximum (in CC#N): 389 nm
absorption maximum (in CCO): 395 nm
absorption maximum (in CN(C)C=O): 395 nm
absorption maximum (in Cc1ccccc1): 400 nm
absorption maximum (in ClCCl): 396 nm

Cc1cc2cc(C)c3c4ccccc4[nH]c3c2o1
absorption maximum (in ClCCl): 302 nm

N#Cc1cc(-c2ccccc2)c(N2c3ccccc3Oc3ccccc32)c(-c2ccccc2)c1
absorption maximum (in C1CCCCC1): 405 nm

CC(=O)[B-]1(C(C)=O)OC(c2ccccc2)=CC(c2ccccc2)=[O+]1
absorption maximum (in CC#N): 377 nm
absorption maximum (in ClC(Cl)(Cl)Cl): 382 nm

Nc1ccc2ccc(O)cc2c1
absorption maximum (in O): 332 nm

c1ccc(-c2nc(-c3ccccc3)c(-c3ccccc3)[nH]2)cc1
absorption maximum (in CC#N): 311.5 nm and 312 nm
absorption maximum (in CO): 311.5 nm

CCCn1c2cccc3c2[c+]2c4c1cccc4n(CCC)c1cccc(c12)n3CCC
absorption maximum (in CC#N): 521 nm

CCN1c2ccc(-c3cc(-c4ccccc4)[nH]n3)cc2Sc2cc(-c3cc(-c4ccccc4)[nH]n3)ccc21
absorption maximum (in C1CCOC1): 338 nm
absorption maximum (in CC#N): 338 nm
absorption maximum (in CN(C)C=O): 336 nm
absorption maximum (in ClCCl): 336 nm
absorption maximum (in c1ccccc1): 338 nm

O=C1O[B-]2(OC1=O)OC(c1ccccc1)=CC(c1ccc3ccccc3c1)=[O+]2
absorption maximum (in CC#N): 435 nm
absorption maximum (in ClC(Cl)(Cl)Cl): 435 nm

c1ccc2c(c1)-c1ccccc1C21c2ccccc2-c2ccncc21
absorption maximum (in CC1CCCO1): 307 nm

CC(C)c1cccc(C(C)C)c1N1C(=O)c2cc(Cl)c3c4c(Cl)cc5c6c(cc(Cl)c(c7c(Cl)cc(c2c37)C1=O)c64)C(=O)N(c1c(C(C)C)cccc1C(C)C)C5=O
absorption maximum (in Cc1ccccc1): 523 nm

CCCCN1C(=O)C(=CC=C2N(CCCC)c3ccccc3N2CCCC)C(=O)N(CCCC)C1=S
absorption maximum (in CCCCCC): 470 nm
absorption maximum (in CCO): 424 nm
absorption maximum (in CN(C)C=O): 431 nm
absorption maximum (in Cc1ccccc1): 468 nm
absorption maximum (in ClC(Cl)Cl): 461 nm
absorption maximum (in ClCCl): 456 nm
